Columns and labels:
DU-145 = assay: NCI DTP cell line screen (SRB), Prostate Cancer; type: cell-based
Procedure: (§1) Screening of compounds 70 and 71 against several cancer cell lines The human tumor cell lines of the cancer screening panel are grown in RPMI 1640 medium containing 5% fetal bovine serum and 2 mM L-glutamine. For a typical screening experiment, cells are inoculated into 96 well microtiter plates in 100 μL at plating densities ranging from 5,000 to 40,000 cells/well depending on the doubling time of individual cell lines. After cell inoculation, the microtiter plates are incubated at 37° C., 5% CO2, 95% air and 100% relative humidity for 24 h prior to addition of experimental drugs.
(§2) After 24 h, two plates of each cell line are fixed in situ with TCA, to represent a measurement of the cell population for each cell line at the time of drug addition (Tz). Experimental drugs are solubilized in dimethyl sulfoxide at 400-fold the desired final maximum test concentration and stored frozen prior to use. At the time of drug addition, an aliquot of frozen concentrate is thawed and diluted to twice the desired final maximum test concentration with complete medium containing 50 μg/ml gentamicin. Additional four, 10-fold or ½ log serial dilutions are made to provide a total of five drug concentrations plus control. Aliquots of 100 μl of these different drug dilutions are added to the appropriate microtiter wells already containing 100 μl of medium, resulting in the required final drug concentrations.
(§3) Following drug addition, the plates are incubated for an additional 48 h at 37° C., 5% CO2, 95% air, and 100% relative humidity. For adherent cells, the assay is terminated by the addition of cold TCA. Cells are fixed in situ by the gentle addition of 50 μl of cold 50% (w/v) TCA (final concentration, 10% TCA) and incubated for 60 minutes at 4° C. The supernatant is discarded, and the plates are washed five times with tap water and air dried. Sulforhodamine B (SRB) solution (100 μl) at 0.4% (w/v) in 1% acetic acid is added to each well, and plates are incubated for 10 minutes at room temperature. After staining, unbound dye is removed by washing five times with 1% acetic acid and the plates are air dried. Bound stain is subsequently solubilized with 10 mM trizma base, and the absorbance is read on an automated plate reader at a wavelength of 515 nm. For suspension cells, the methodology is the same except that the assay is terminated by fixing settled cells at the bottom of the wells by gently adding 50 μl of 80% TCA (final concentration, 16% TCA). Using the seven absorbance measurements [time zero, (Tz), control growth, (C), and test growth in the presence of drug at the five concentration levels (Ti)], the percentage growth is calculated at each of the drug concentrations levels. Percentage growth inhibition is calculated as: [(Ti−Tz)/(C−Tz)]×100 for concentrations for which Ti>/=Tz [(Ti−Tz)/Tz]×100 for concentrations for which Ti<Tz
(§4) Three dose response parameters are calculated for each experimental agent. […] The drug concentration resulting in total growth inhibition (TGI) is calculated from Ti=Tz. […] Values are calculated for each of these three parameters if the level of activity is reached; however, if the effect is not reached or is exceeded, the value for that parameter is expressed as greater or less than the maximum or minimum concentration tested.
(§5) The methods described were used to test compounds 70 and 71 on a panel of sixty cell lines under a screening service provided by the Developmental Therapeutics Program at the National Institutes of Health. Shown in FIG. 1C are 1, RPMI-8226 leukemia cells; 2; NCI-H322M non-small cell lung cancer cells; 3, HT29 colon cancer cells; 4, U251 CNS cancer cells; 5, SK-MEL-28 melanoma cancer cells; 6, SK-OV-3 ovarian cancer cells; 7, RXF 393 renal cancer cells; 8, PC-3 prostate cancer cells; 9, MDA-MB-231 breast cancer cells.

PC-3 = assay: NCI DTP cell line screen (SRB), Prostate Cancer; type: cell-based
Procedure: as §1, §2, §3, §4, §5

TK-10 = assay: NCI DTP cell line screen (SRB), Renal Cancer; type: cell-based
Procedure: as §1, §2, §3, §4, §5

786-0 = assay: NCI DTP cell line screen (SRB), Renal Cancer; type: cell-based
Procedure: as §1, §2, §3, §4, §5

RPMI-8226 = assay: NCI DTP cell line screen (SRB), Leukemia; type: cell-based, human
Procedure: as §1, §2, §3, §4, §5

K-562 = assay: NCI DTP cell line screen (SRB), Leukemia; type: cell-based
Procedure: as §1, §2, §3, §4, §5

SR = assay: NCI DTP cell line screen (SRB), Leukemia; type: cell-based
Procedure: as §1, §2, §3, §4, §5

MOLT-4 = assay: NCI DTP cell line screen (SRB), Leukemia; type: cell-based
Procedure: as §1, §2, §3, §4, §5

SMILES: NCC(=O)Nc1ccc(-n2nc(C(F)(F)F)cc2-c2ccc3c(ccc4ccccc43)c2)cc1 [Compound 70, 2-Amino-N-{4-[5-(2-phenanthrenyl)-3-(trifluoromethyl)-1H-pyrazol-1-yl]-phenyl}-acetamide]
- TGI (DU-145): 3.47E−06
- Percent Growth (DU-145; Log10 Concentration −4.0): −60%
- Percent Growth (DU-145; Log10 Concentration −5.0): −76%
- Percent Growth (DU-145; Log10 Concentration −6.0): 90%
- Percent Growth (DU-145; Log10 Concentration −7.0): 109%
- Percent Growth (DU-145; Log10 Concentration −8.0): 105%
- TGI (PC-3): 2.38E−06
- Percent Growth (PC-3; Log10 Concentration −4.0): −55%
- Percent Growth (PC-3; Log10 Concentration −5.0): −77%
- Percent Growth (PC-3; Log10 Concentration −6.0): 47%
- Percent Growth (PC-3; Log10 Concentration −7.0): 69%
- Percent Growth (PC-3; Log10 Concentration −8.0): 89%
- TGI (TK-10): 3.10E−06
- Percent Growth (TK-10; Log10 Concentration −4.0): −70%
- Percent Growth (TK-10; Log10 Concentration −5.0): −80%
- Percent Growth (TK-10; Log10 Concentration −6.0): 77%
- Percent Growth (TK-10; Log10 Concentration −7.0): 100%
- Percent Growth (TK-10; Log10 Concentration −8.0): 102%
- TGI (786-0): 2.85E−06
- Percent Growth (786-0; Log10 Concentration −4.0): −54%
- Percent Growth (786-0; Log10 Concentration −5.0): −72%
- Percent Growth (786-0; Log10 Concentration −6.0): 60%
- Percent Growth (786-0; Log10 Concentration −7.0): 95%
- Percent Growth (786-0; Log10 Concentration −8.0): 104%
- Percent Growth (RPMI-8226; Log10 Concentration −4.0): −31%
- Percent Growth (RPMI-8226; Log10 Concentration −5.0): −51%
- Percent Growth (RPMI-8226; Log10 Concentration −6.0): 42%
- Percent Growth (RPMI-8226; Log10 Concentration −7.0): 72%
- Percent Growth (RPMI-8226; Log10 Concentration −8.0): 85%
- TGI (RPMI-8226; in M (unit assumed)): 2.84E−06
- TGI (K-562): 3.34E−06
- Percent Growth (K-562; Log10 Concentration −4.0): −17%
- Percent Growth (K-562; Log10 Concentration −5.0): −30%
- Percent Growth (K-562; Log10 Concentration −6.0): 33%
- Percent Growth (K-562; Log10 Concentration −7.0): 62%
- Percent Growth (K-562; Log10 Concentration −8.0): 97%
- TGI (SR): 4.17E−06
- Percent Growth (SR; Log10 Concentration −5.0): −27%
- Percent Growth (SR; Log10 Concentration −6.0): 45%
- Percent Growth (SR; Log10 Concentration −7.0): 80%
- Percent Growth (SR; Log10 Concentration −8.0): 84%
- TGI (MOLT-4): 3.10E−06
- Percent Growth (MOLT-4; Log10 Concentration −4.0): −6%
- Percent Growth (MOLT-4; Log10 Concentration −5.0): −42%
- Percent Growth (MOLT-4; Log10 Concentration −6.0): 41%
- Percent Growth (MOLT-4; Log10 Concentration −7.0): 87%
- Percent Growth (MOLT-4; Log10 Concentration −8.0): 89%

— patent publication US8541460B2, “PDK-1/Akt signaling inhibitors” (The Ohio State University, priority 2003, dated 2013)
